Test results from paper PMC9227351, “A Novel Antihypertensive Pentapeptide Identified in Quinoa Bran Globulin Hydrolysates: Purification, In Silico Characterization, Molecular Docking with ACE and Stability against Different Food-Processing Conditions” (Nutrients, 2022).
“Also recorded” adds a separate entry of the source. Ends that are not written are not given here.

Experiments:
[1] = proline-rich literature peptides; cited from earlier work
From the text: The main reason was the structural characteri ...

ACE [2] = conditions: literature peptides; ref 13 (GYGYNY), 20 (SSYYPFK), 34 (NMAINPSKENLCSTFCK); read-out: IC50 of ACE-inhibitory activity; cited from earlier work
From the text: Obviously, SAPPP was a pentapeptide of high content of Pro. […] Some special acid residues including aromatic amino acids (Phe, Trp and Tyr) and Pro in the C-terminal tripeptides can tightly bind with active sites of ACE and show ... || Peptides can bind to the key binding pockets of ACE (S1, S1′, and S2′), and disturb the combination of ACE and the […] (angiotensin-I or bradykinin), thereby showing a competitive inhibition pattern. […] Moreover, the docking T-Score of SAPPP (8.88) was higher than the required value (6.0).

ACE [3] = assay: Stability against simulated gastrointestinal digestion, read out as ACE-inhibitory activity; format: in vitro ADME; conditions: peptide 1 mg/mL; pepsin pH 2.0 37 °C 90 min, then trypsin/bile salt pH 6.8 37 °C 180 min; activity before versus after digestion; p > 0.05
Experimental: As per the same procedure described by Jimsheena and Gowda, inhibition activity on ACE was evaluated by comparing the quantity of produced hippuric acid before and after the addition of the peptides. IC50 value was calculated from the regression equation of ACE inhibition percentage versus different concentrations of the sample, and defined as the concentration of sample when ACE-inhibitory activity was 50%.
Following the method of Sun et al., mixtures of trypsin (0.45 g), pig bile salt (3 g) and NaHCO3 (6.25 g) dissolved in 100 mL of dH2O (pH 6.8) were used to simulate intestinal fluid, whereas pepsin (40 mg) and NaCl (0.877 g) dissolved in 100 mL of dH2O (pH 2.0) were used as gastric fluid. Peptide solutions (dissolved in ultrapure water, 1 mg/mL) were incubated at 37 °C in a stirring bath (140 r/min) for 15 min; then, the simulated gastric fluid was added (gastric fluid: peptide solution = 1:10 v/v) and incubated at 37 °C (140 r/min) for 90 min. Then, the reaction solution was adjusted to pH 6.8 with Na2HPO4. The simulated intestinal fluid (the fluid: peptide solution = 1:10, v/v) was added and stirred (140 r/min) at 37 °C for 180 min. All the reaction solutions were heated at 100 °C for 8 min to inactivate the enzyme. Stability was calculated by comparing the ACE-inhibitory activities of the peptides before and after the digestion.

Substance | Stability against gastrointestinal digestion [1] | IC50 (ACE [2]) | Stability of ACE-inhibitory activity during simulated gastrointestinal digestion (ACE [3])
LHPQ [proline-rich peptide identified in canary seed] | excellent stability |  | 
KPVPR [proline-rich peptide identified in canary seed] | excellent stability |  | 
GYGYNY |  | 384 µM | 
NMAINPSKENLCSTFCK |  | 129 µM | 
SAPPP [SAPPP, Ser-Ala-Pro-Pro-Pro] |  |  | resistant; also recorded: relatively stable
ELHPQ [proline-rich peptide identified in canary seed] | excellent stability |  | 
SSYYPFK | excellent stability | 91.8 µM | 
